Each structure is given as a SMILES string.

The results in this text go back to article PMC12593396 (2025).

For this assay, the system named is 3WJ (PAGE) (DNA, junction) CGGAACGGCACTCG/CGAGTGCAGCGTGG/CCACGCTCGTTCCG
Nature of the assay: PAGE junction assembly. The following applies: 10 mM NaCl, 1x TB.

Take `C(=Nc1ccc(Cc2ccc(N=Cc3ccccn3)cc2)cc1)c1ccccn1.C(=Nc1ccc(Cc2ccc(N=Cc3ccccn3)cc2)cc1)c1ccccn1.C(=Nc1ccc(Cc2ccc(N=Cc3ccccn3)cc2)cc1)c1ccccn1.[Ni+2].[Ni+2]`: the binding result is “yes”.

With `[Pt+2].[Pt+2].c1cncc(Oc2ccc(Oc3cccnc3)cc2)c1.c1cncc(Oc2ccc(Oc3cccnc3)cc2)c1.c1cncc(Oc2ccc(Oc3cccnc3)cc2)c1.c1cncc(Oc2ccc(Oc3cccnc3)cc2)c1`, the binding result (0.1 to 5 equivalents) is listed as “yes”.
